Source: ChEMBL document CHEMBL4483862, “Open-source discovery of chemical leads for next-generation chemoprotective antimalarials” (2018)

Tested on: Plasmodium berghei
Test: Luciferase/luciferin-expressing antifolate-resistant parasites were used to infect a culture of HepG2 cells that were pre-incubated with compounds. Infected hepatocytes emit light due to the luciferase reaction. Assay results are presented as the percent inhibition of light emission compared to control. […]
Type: functional
Conditions: sporozoite; for IC90: read-out: LUCIFERASE INFECTION ASSAY - IC90
[1] = read-out: LUCIFERASE INFECTION ASSAY - IC50

Row | Structure (SMILES) | IC90 | further results
1 | CCOC(=O)c1c(S(=O)(=O)Nc2ccc(C(C)(C)C)cc2)c(-c2ccccc2)n(-c2ccccc2)c1C | 5.19 µM | IC50 (FFLUC_HILL_SLOPE 2.33, FFLUC_R_SQUARED 0.844, HEPG2TOX_HILL_SLOPE 0.337, HEPG2TOX_R_SQUARED 0.667, PBLUC_HILL_SLOPE 4.65, PBLUC_R_SQUARED 0.51, read-out: LUCIFERASE INFECTION ASSAY - IC50): 3.23 µM
2 | CC(c1ccc(-n2cncn2)cc1)N(C)CC(=O)Nc1ccc(OC(F)(F)F)cc1 (stereo unspecified) | > 10 µM | IC50 (PBLUC_HILL_SLOPE 12.9, PBLUC_R_SQUARED 0.556, read-out: LUCIFERASE INFECTION ASSAY - IC50): 9.67 µM
3 | COC(=O)c1c(NC(=O)c2ccco2)c2cc(NC(C)Cc3ccccc3OC)cnc2n1C (stereo unspecified) | > 7.14 µM | IC50 (HEPG2TOX_HILL_SLOPE 9.88, HEPG2TOX_R_SQUARED 0.405, PBLUC_HILL_SLOPE 3.37, PBLUC_R_SQUARED 0.677, read-out: LUCIFERASE INFECTION ASSAY - IC50): 4.39 µM
4 | CCN(CC)S(=O)(=O)c1ccc2nnc(Sc3nc(C)nc4sc5c(c34)CCCC5)n2c1 | > 10 µM | IC50 [1]: > 10 µM
5 | Cc1nn(C)c2sc(C(=O)N(C)c3nc4ccccc4s3)cc12 | > 10 µM | IC50 [1]: > 10 µM
6 | Cc1ccc(C(C#N)c2ccc(NN)nn2)cc1 (stereo unspecified) | > 13.8 µM | IC50 (FFLUC_HILL_SLOPE 3.94, FFLUC_R_SQUARED 0.836, read-out: LUCIFERASE INFECTION ASSAY - IC50): > 13.8 µM
7 | O=S(=O)(/N=C(\N/N=C/c1ccc(Cl)cc1)N1CCCC1)c1ccc(-n2nc(C(F)(F)F)cc2-c2cccs2)cc1 | > 5.44 µM | IC50 (FFLUC_HILL_SLOPE 13, FFLUC_R_SQUARED 0.6, read-out: LUCIFERASE INFECTION ASSAY - IC50): > 5.44 µM
8 | OCc1ccc(-c2cnc3ccc(-c4ccccc4)nn23)cc1 | 3.93 µM | IC50 (HEPG2TOX_HILL_SLOPE 2.14, HEPG2TOX_R_SQUARED 0.888, PBLUC_HILL_SLOPE 1.3, PBLUC_R_SQUARED 0.716, read-out: LUCIFERASE INFECTION ASSAY - IC50): 0.73 µM
9 | Cn1cc(-c2cnc3ccc(Cc4ccc(F)cc4)nn23)cn1 | > 10 µM | IC50 (PBLUC_HILL_SLOPE 1.72, PBLUC_R_SQUARED 0.782, read-out: LUCIFERASE INFECTION ASSAY - IC50): 4.99 µM
10 | Cn1cnnc1SCC(=O)NC(Cc1c[nH]c2ccccc12)C(=O)O (stereo unspecified) | > 10 µM | IC50 [1]: > 10 µM
11 | COc1ccc(NS(=O)(=O)c2cc([N+](=O)[O-])ccc2NNC(=S)NC2CCCCC2)cc1 | > 10 µM | IC50 [1]: > 10 µM
12 | N#CC(C(=O)CSc1nnc(-c2ccc(F)cc2)c2ccccc12)=C1Nc2ccccc2N1 | > 10 µM | IC50 (FFLUC_HILL_SLOPE 12, FFLUC_R_SQUARED 0.136, read-out: LUCIFERASE INFECTION ASSAY - IC50): > 10 µM
13 | Cc1cccc(/C=C(/C(=O)NCc2ccc(NC(=O)C(C)C)cc2)c2cccs2)c1 | 4.58 µM | IC50 (PBLUC_HILL_SLOPE 14.7, PBLUC_R_SQUARED 0.598, read-out: LUCIFERASE INFECTION ASSAY - IC50): 3.95 µM
14 | COc1ccc(-c2nn(-c3ccccc3)cc2CN(Cc2ccccc2)C(=O)c2ccco2)cc1 | > 10 µM | IC50 [1]: > 10 µM
15 | COc1cccc(C(=O)Nc2cccc(Nc3ccc(-c4cc(OC)c(OC)c(OC)c4)cn3)c2)c1 | > 6.8 µM | IC50 [1]: > 6.8 µM
16 | CCCOc1cc2cc(C(=O)c3ccccc3O)cnc2cc1OCCC | 4.78 µM | IC50 (FFLUC_HILL_SLOPE 5.56, FFLUC_R_SQUARED 0.125, HEPG2TOX_HILL_SLOPE 2.18, HEPG2TOX_R_SQUARED 0.51, PBLUC_HILL_SLOPE 8.83, PBLUC_R_SQUARED 0.576, read-out: LUCIFERASE INFECTION ASSAY - IC50): 3.73 µM
17 | CC(C)C(=O)Nc1ccc(-c2nc3ccccc3[nH]2)cc1 | > 11.8 µM | IC50 (FFLUC_HILL_SLOPE 2.58, FFLUC_R_SQUARED 0.591, PBLUC_HILL_SLOPE 1.21, PBLUC_R_SQUARED 0.595, read-out: LUCIFERASE INFECTION ASSAY - IC50): 4.49 µM
18 | Cc1ccsc1CN(C)C(C)C(=O)Nc1cc(C(F)(F)F)ccc1N1CCOCC1 (stereo unspecified) | > 10 µM | IC50 (PBLUC_HILL_SLOPE 0.840, 16.2, PBLUC_R_SQUARED 0.288, 0.265, read-out: LUCIFERASE INFECTION ASSAY - IC50): > 10 µM
19 | O=C1C=CC(=O)N1c1ccc(C2CCCCC2)cc1 | 11.3 µM | IC50 (HEPG2TOX_HILL_SLOPE 18, HEPG2TOX_R_SQUARED 0.917, PBLUC_HILL_SLOPE 2, PBLUC_R_SQUARED 0.694, read-out: LUCIFERASE INFECTION ASSAY - IC50): 3.78 µM

Row | Structure (SMILES) | IC90 | further results
20 | CCn1c(-c2ccccc2)c(C(=O)COc2ccc(F)cc2Br)c2ccccc21 | > 10 µM | IC50 (FFLUC_HILL_SLOPE 1400, FFLUC_R_SQUARED 0.245, read-out: LUCIFERASE INFECTION ASSAY - IC50): > 10 µM
21 | COc1ccc2c(-c3ccccc3)cc(NCCc3ccc(S(N)(=O)=O)cc3)nc2c1 | > 10 µM | IC50 [1]: 8.55 µM
22 | O=C(NC1CC1)c1ccc(-c2cn3c(-c4ccc(C(=O)NC5CC5)cc4)cnc3cn2)cc1 | > 7.54 µM | IC50 (HEPG2TOX_HILL_SLOPE 0.33, HEPG2TOX_R_SQUARED 0.326, PBLUC_HILL_SLOPE 6.32, PBLUC_R_SQUARED 0.0215, read-out: LUCIFERASE INFECTION ASSAY - IC50): > 7.54 µM
23 | C/C(=N\NC(N)=S)c1ccccn1 | 2.4 µM | IC50 (HEPG2TOX_HILL_SLOPE 1.14, HEPG2TOX_R_SQUARED 0.913, PBLUC_HILL_SLOPE 1.97, PBLUC_R_SQUARED 0.843, read-out: LUCIFERASE INFECTION ASSAY - IC50): 0.788 µM
24 | OC(COc1ccc(Cl)c(Cl)c1)CN1CCC(Nc2nccc(C(F)(F)F)n2)CC1 (stereo unspecified) | > 7.09 µM | IC50 (PBLUC_HILL_SLOPE 16.2, PBLUC_R_SQUARED 0.0623, read-out: LUCIFERASE INFECTION ASSAY - IC50): 6.96 µM
25 | O=C(NNC(=O)c1ccccc1OCC1CCCO1)c1cc2ccccc2cc1O (stereo unspecified) | 4.01 µM | IC50 (HEPG2TOX_HILL_SLOPE 0.895, HEPG2TOX_R_SQUARED 0.962, PBLUC_HILL_SLOPE 14.5, PBLUC_R_SQUARED 0.545, read-out: LUCIFERASE INFECTION ASSAY - IC50): 3.45 µM
26 | COc1ccc(/C(C)=N/NC(=O)c2sc3ccccc3c2Cl)c(O)c1 | 3.29 µM | IC50 (HEPG2TOX_HILL_SLOPE 4.02, HEPG2TOX_R_SQUARED 0.607, PBLUC_HILL_SLOPE 31, PBLUC_R_SQUARED 0.396, read-out: LUCIFERASE INFECTION ASSAY - IC50): 3.06 µM
27 | Cc1cccc(NC(=O)CN2C(=O)/C(=C(/C#N)c3nc4ccccc4[nH]3)c3ccccc32)c1 | > 10 µM | IC50 (FFLUC_HILL_SLOPE 4.46, FFLUC_R_SQUARED 0.474, HEPG2TOX_HILL_SLOPE 6.44, HEPG2TOX_R_SQUARED 0.532, PBLUC_HILL_SLOPE 2.02, PBLUC_R_SQUARED 0.59, read-out: LUCIFERASE INFECTION ASSAY - IC50): 5.68 µM
28 | N/C(=N\OC(=O)c1ccc2ncsc2c1)c1ccccc1 | 9.73 µM | IC50 (FFLUC_HILL_SLOPE 2.58, FFLUC_R_SQUARED 0.671, PBLUC_HILL_SLOPE 1.01, PBLUC_R_SQUARED 0.623, read-out: LUCIFERASE INFECTION ASSAY - IC50): 1.1 µM
29 | Cc1ccc(Sc2ccc(/C=C/c3cc(C(=O)O)c4ccccc4n3)cc2[N+](=O)[O-])cc1 | > 10 µM | IC50 (PBLUC_HILL_SLOPE 1.12, PBLUC_R_SQUARED 0.368, read-out: LUCIFERASE INFECTION ASSAY - IC50): 8.94 µM
30 | CNc1nc2cnc(-c3cccc(OC(F)(F)F)c3)cc2n1-c1cccc(F)c1 | > 10 µM | IC50 (PBLUC_HILL_SLOPE 15.2, PBLUC_R_SQUARED 0.218, read-out: LUCIFERASE INFECTION ASSAY - IC50): 9.01 µM
31 | CCCn1nc(C(=O)Nc2ccccc2Cc2ccccc2)c2ccccc2c1=O | > 10 µM | IC50 (FFLUC_HILL_SLOPE 12.7, FFLUC_R_SQUARED 0.0456, HEPG2TOX_HILL_SLOPE 0.0305, HEPG2TOX_R_SQUARED 0.0383, read-out: LUCIFERASE INFECTION ASSAY - IC50): > 10 µM
32 | COCC(C)n1c(C)cc(C(=O)COC(=O)c2ccccc2SCC(=O)NC2CCCCCCC2)c1C (stereo unspecified) | 5.25 µM | IC50 (FFLUC_HILL_SLOPE 1.67, FFLUC_R_SQUARED 0.346, PBLUC_HILL_SLOPE 7.4, PBLUC_R_SQUARED 0.408, read-out: LUCIFERASE INFECTION ASSAY - IC50): 3.9 µM
33 | COc1cc(-n2nnnc2-c2ccc([N+](=O)[O-])cc2)c(Cl)cc1Cl | > 9.01 µM | IC50 [1]: > 9.01 µM
34 | CC(C)(C)c1ccc(OCCNC(=O)c2cccnc2)cc1 | > 11.1 µM | IC50 [1]: > 11.1 µM
35 | O=C(c1ccccc1)C1(c2nc3ccccc3s2)Sc2ccccc2C1=O (stereo unspecified) | 7.72 µM | IC50 (HEPG2TOX_HILL_SLOPE 2.24, HEPG2TOX_R_SQUARED 0.913, PBLUC_HILL_SLOPE 6.06, PBLUC_R_SQUARED 0.741, read-out: LUCIFERASE INFECTION ASSAY - IC50): 5.37 µM
36 | Cc1ccc(-c2noc(CCC(=O)N3CCN(C/C=C/c4ccccc4)CC3)n2)cc1 | > 10 µM | IC50 (HEPG2TOX_HILL_SLOPE 6.22, HEPG2TOX_R_SQUARED 0.551, PBLUC_HILL_SLOPE 3.17, PBLUC_R_SQUARED 0.265, read-out: LUCIFERASE INFECTION ASSAY - IC50): 5.07 µM
37 | CS(=O)(=O)c1ccc(S(=O)(=O)Oc2ccc(C3CCCCC3)cc2)cc1 | > 10 µM | IC50 (HEPG2TOX_HILL_SLOPE 0.47, HEPG2TOX_R_SQUARED 0.776, PBLUC_HILL_SLOPE 1, PBLUC_R_SQUARED 0.337, read-out: LUCIFERASE INFECTION ASSAY - IC50): 6.62 µM
38 | CN(Cc1ccccc1)C(=O)Nc1cccc2ncccc12 | > 10 µM | IC50 [1]: > 10 µM
